For this assay, the target named is His-tagged recombinant human MER cytoplasmic domain (Homo sapiens (Human), UniProt Q12866). Description: MER Enzyme Assay (LanthaScreen Eu Kinase Binding, TR-FRET). The note with it: averaged IC50. As to the method:
Compounds of Formula I were screened for their ability to inhibit MER kinase using Invitrogen's LanthaScreen™ Eu Kinase Binding technology. […] After a 60-minute incubation at 22° C., the reaction was measured using a PerkinElmer EnVision multimode plate reader via TR-FRET dual wavelength detection, and the percent of control (POC) was calculated using a ratiometric emission factor. […] The POC values are fit to a 4 parameter logistic curve and the IC50 value is point where the curve crosses 50 POC.
In general terms: TR-FRET usually uses a lanthanide donor and a delayed reading to cut background.

The source of these data is US11247990B1, “Bicyclic fused pyridine compounds as inhibitors of TAM kinases” (ARRAY BIOPHARMA INC., priority 2017, dated 2022).

For orientation: IC50 means the concentration that inhibits the measured activity by half.

Chain of His-tagged recombinant human MER cytoplasmic domain (Q12866 527-999): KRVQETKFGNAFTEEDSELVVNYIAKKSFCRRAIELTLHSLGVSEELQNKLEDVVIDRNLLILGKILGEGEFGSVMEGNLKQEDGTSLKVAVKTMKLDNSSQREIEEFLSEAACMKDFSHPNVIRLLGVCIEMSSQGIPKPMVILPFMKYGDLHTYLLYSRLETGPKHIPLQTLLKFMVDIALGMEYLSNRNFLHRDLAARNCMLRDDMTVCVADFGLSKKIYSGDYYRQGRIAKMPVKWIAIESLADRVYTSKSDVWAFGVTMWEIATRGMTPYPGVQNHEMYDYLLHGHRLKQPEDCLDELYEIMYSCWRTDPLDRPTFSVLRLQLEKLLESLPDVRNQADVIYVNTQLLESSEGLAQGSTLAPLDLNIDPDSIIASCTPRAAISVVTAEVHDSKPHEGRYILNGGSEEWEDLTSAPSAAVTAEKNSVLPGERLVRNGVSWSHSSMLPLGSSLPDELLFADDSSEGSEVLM

Take `CNc1cc2c(cn1)c(-c1cnn(C)c1)nn2[C@H]1CC[C@@H](Oc2ccc(=O)[nH]c2)CC1` [Example 25, 5-(((1s,4s)-4-(3-(1-methyl-1H-pyrazol-4-yl)-6-(methylamino)-1H-pyrazolo[4,3-c]pyridin-1-yl)cyclohexyl)oxy)pyridin-2(1H)-one]: the concentration for half-maximal inhibition (IC50) is < 10 nM.
The figure for `CCNc1cc2c(cn1)c(-c1ccc(CN3CCN(CCOC)CC3)cc1)nn2[C@H]1CC[C@@H](Oc2ccc(=O)n(C)n2)CC1` [Example 82, 6-(((1s,4s)-4-(6-(ethylamino)-3-(4-((4-(2-methoxyethyl)piperazin-1-yl)methyl)phenyl)-1H-pyrazolo[4,3-c]pyridin-1-yl)cyclohexyl)oxy)-2-methylpyridazin-3(2H)-one] is < 10 nM; for `CCNc1cc2c(cn1)c(-c1ccc(CN3CC[C@@H](OC)C3)cc1)nn2[C@H]1CC[C@@H](Oc2ccc(=O)n(C)n2)CC1` [Example 83, 6-(((1S,4s)-4-(6-(ethylamino)-3-(4-(((R)-3-methoxypyrrolidin-1-yl)methyl)phenyl)-1H-pyrazolo[4,3-c]pyridin-1-yl)cyclohexyl)oxy)-2-methylpyridazin-3(2H)-one] it is < 10 nM.
For `CCNc1cc2c(cn1)c(-c1ccc(CN3CC(C)(O)C3)cc1)nn2[C@H]1CC[C@@H](Oc2ccc(=O)n(C)n2)CC1` [Example 90, 6-(((1s,4s)-4-(6-(ethylamino)-3-(4-((3-hydroxy-3-methylazetidin-1-yl)methyl)phenyl)-1H-pyrazolo[4,3-c]pyridin-1-yl)cyclohexyl)oxy)-2-methylpyridazin-3(2H)-one], the IC50 is < 10 nM.
For `CCNc1cc2c(cn1)c(-c1ccc(CN3CC[C@@H](CO)C3)cc1)nn2[C@H]1CC[C@@H](Oc2ccc(=O)n(C)n2)CC1` [Example 95, 6-(((1S,4s)-4-(6-(ethylamino)-3-(4-(((R)-3-(hydroxymethyl)pyrrolidin-1-yl)methyl)phenyl)-1H-pyrazolo[4,3-c]pyridin-1-yl)cyclohexyl)oxy)-2-methylpyridazin-3(2H)-one], the concentration for half-maximal inhibition (IC50) is < 10 nM.
Turning to `CCNc1cc2c(cn1)c(-c1ccc(CN3C[C@H](C)[C@@H](O)C3)cc1)nn2[C@H]1CC[C@@H](Oc2ccc(=O)n(C)n2)CC1` [Example 96, 6-(((1S,4s)-4-(6-(ethylamino)-3-(4-(((3R,4S)-3-hydroxy-4-methylpyrrolidin-1-yl)methyl)phenyl)-1H-pyrazolo[4,3-c]pyridin-1-yl)cyclohexyl)oxy)-2-methylpyridazin-3(2H)-one], the half-maximal inhibitory concentration (IC50) is < 10 nM.
For `CCNc1cc2c(cn1)c(-c1ccc(CN3CC[C@@H](C)C3)cc1)nn2C1CCC(Oc2ccc(=O)n(C)n2)CC1` (stereo partly drawn) [Example 98, 6-(((1S,4s)-4-(6-(ethylamino)-3-(4-(((R)-3-methylpyrrolidin-1-yl)methyl)phenyl)-1H-pyrazolo[4,3-c]pyridin-1-yl)cyclohexyl)oxy)-2-methylpyridazin-3(2H)-one], the concentration for half-maximal inhibition (IC50) was < 10 nM.
For `CCNc1cc2c(cn1)c(Br)nn2[C@H]1CC[C@@H](Oc2ccc(=O)[nH]c2C(F)(F)F)CC1` [Example 106], the IC50 was < 10 nM.
On to `CNc1cc2c(cn1)c(-c1cnn(C)c1)nn2[C@H]1CC[C@@H](Oc2cccc(=O)n2C)CC1` [Example 110, 1-methyl-6-(((1s,4s)-4-(3-(1-methyl-1H-pyrazol-4-yl)-6-(methylamino)-1H-pyrazolo[4,3-c]pyridin-1-yl)cyclohexyl)oxy)pyridin-2(1H)-one], for which the half-inhibitory concentration (IC50) is < 10 nM.
For `CNc1cc2c(cn1)c(-c1cnn(C)c1)nn2[C@H]1CC[C@@H](Oc2cccnc2OC)CC1` [Example 142, 1-((1s,4s)-4-((2-methoxypyridin-3-yl)oxy)cyclohexyl)-N-methyl-3-(1-methyl-1H-pyrazol-4-yl)-1H-pyrazolo[4,3-c]pyridin-6-amine], the half-inhibitory concentration (IC50) was < 10 nM.
As to `CNc1cc2c(cn1)c(-c1cnn(C)c1)nn2[C@H]1CC[C@@H](Oc2ccnn2C)CC1` [Example 143, N-methyl-3-(1-methyl-1H-pyrazol-4-yl)-1-((1s,4s)-4-((1-methyl-1H-pyrazol-5-yl)oxy)cyclohexyl)-1H-pyrazolo[4,3-c]pyridin-6-amine], the IC50 is < 10 nM.
The figure for `CNc1cc2c(cn1)c(-c1cnn(C)c1)nn2[C@H]1CC[C@@H](Oc2nccc(C(F)(F)F)n2)CC1` [Example 153, N-methyl-3-(1-methyl-1H-pyrazol-4-yl)-1-((1s,4s)-4-((4-(trifluoromethyl)pyrimidin-2-yl)oxy)cyclohexyl)-1H-pyrazolo[4,3-c]pyridin-6-amine] is < 10 nM; for `CCNc1cc2c(cn1)c(-c1cnn(C(C)(C)C#N)c1)nn2[C@H]1CC[C@@H](Oc2nccnc2C)CC1` [Example 181, 2-(4-(6-(ethylamino)-1-((1s,4s)-4-((3-methylpyrazin-2-yl)oxy)cyclohexyl)-1H-pyrazolo[4,3-c]pyridin-3-yl)-1H-pyrazol-1-yl)-2-methylpropanenitrile] it is < 10 nM; for `CCNc1cc2c(cn1)c(-c1cnn(C)c1)nn2[C@H]1CC[C@@H](Oc2cccnc2C)CC1` [Example 185, N-ethyl-3-(1-methyl-1H-pyrazol-4-yl)-1-((1s,4s)-4-((2-methylpyridin-3-yl)oxy)cyclohexyl)-1H-pyrazolo[4,3-c]pyridin-6-amine] it is < 10 nM.
The figure for `CCNc1cc2c(cn1)c(-c1cnn(C)c1)nn2[C@H]1CC[C@@H](Oc2cccnc2C2CC2)CC1` [Example 186, 1-((1s,4s)-4-((2-cyclopropylpyridin-3-yl)oxy)cyclohexyl)-N-ethyl-3-(1-methyl-1H-pyrazol-4-yl)-1H-pyrazolo[4,3-c]pyridin-6-amine] is < 10 nM; for `CCNc1cc2c(cn1)c(-c1cnn(C)c1)nn2[C@H]1CC[C@@H](Oc2nccnc2C)CC1` [Example 189, N-ethyl-3-(1-methyl-1H-pyrazol-4-yl)-1-((1s,4s)-4-((3-methylpyrazin-2-yl)oxy)cyclohexyl)-1H-pyrazolo[4,3-c]pyridin-6-amine] it is < 10 nM.
In the case of `CCNc1cc2c(cn1)c(-c1cnn(C)c1)nn2[C@H]1CC[C@@H](Oc2cccnc2C(C)C)CC1` [Example 192, N-ethyl-1-((1s,4s)-4-((2-isopropylpyridin-3-yl)oxy)cyclohexyl)-3-(1-methyl-1H-pyrazol-4-yl)-1H-pyrazolo[4,3-c]pyridin-6-amine], the half-maximal inhibitory concentration (IC50) is < 10 nM.
Take `CCNc1cc2c(cn1)c(-c1cnn(C)c1)nn2[C@H]1CC[C@@H](Oc2cccnc2CC)CC1` [Example 193, N-ethyl-1-((1s,4s)-4-((2-ethylpyridin-3-yl)oxy)cyclohexyl)-3-(1-methyl-1H-pyrazol-4-yl)-1H-pyrazolo[4,3-c]pyridin-6-amine]: the IC50 is < 10 nM.
Consider `CCNc1cc2c(cn1)c(-c1cnn(C)c1)nn2[C@H]1CC[C@@H](Oc2cc(C#N)ccn2)CC1` [Example 200, 2-(((1s,4s)-4-(6-(ethylamino)-3-(1-methyl-1H-pyrazol-4-yl)-1H-pyrazolo[4,3-c]pyridin-1-yl)cyclohexyl)oxy)isonicotinonitrile], for which the IC50 is < 10 nM.
The figure for `CCNc1cc2c(cn1)c(-c1cnn(C)c1)nn2[C@H]1CC[C@@H](Oc2cnnn2CC)CC1` [Example 225, N-ethyl-1-((1 s,4s)-4-((1-ethyl-1H-1,2,3-triazol-5-yl)oxy)cyclohexyl)-3-(1-methyl-1H-pyrazol-4-yl)-1H-pyrazolo[4,3-c]pyridin-6-amine] is < 10 nM.
The figure for `CCNc1cc2c(cn1)c(-c1ccc(CN3CCN(C)CC3)cc1)nn2[C@H]1CC[C@@H](Oc2cn(C)nc2C)CC1` [Example 229, 1-((1s,4s)-4-((1,3-dimethyl-1H-pyrazol-4-yl)oxy)cyclohexyl)-N-ethyl-3-(4-((4-methylpiperazin-1-yl)methyl)phenyl)-1H-pyrazolo[4,3-c]pyridin-6-amine] is < 10 nM.
`CCNc1cc2c(cn1)c(-c1ccc3c(c1)CNC3=O)nn2[C@H]1CC[C@@H](Oc2cn(C)nc2C)CC1` [Example 230, 5-(1-((1s,4s)-4-((1,3-dimethyl-1H-pyrazol-4-yl)oxy)cyclohexyl)-6-(ethylamino)-1H-pyrazolo[4,3-c]pyridin-3-yl)isoindolin-1-one]: the IC50 is < 10 nM.
The figure for `CCNc1cc2c(cn1)c(-c1ccc(C(=O)NC3CC3)cc1)nn2[C@H]1CC[C@@H](Oc2cn(C)nc2C)CC1` [Example 231, N-cyclopropyl-4-(1-((1s,4s)-4-((1,3-dimethyl-1H-pyrazol-4-yl)oxy)cyclohexyl)-6-(ethylamino)-1H-pyrazolo[4,3-c]pyridin-3-yl)benzamide] is < 10 nM; for `CCNc1cc2c(cn1)c(-c1ccc(CN3CCN(C)CC3)cc1)nn2[C@H]1CC[C@@H](Oc2cnn(C)c2)CC1` [Example 233, N-ethyl-1-((1s,4s)-4-((1-methyl-1H-pyrazol-4-yl)oxy)cyclohexyl)-3-(4-((4-methylpiperazin-1-yl)methyl)phenyl)-1H-pyrazolo[4,3-c]pyridin-6-amine] it is < 10 nM; for `CCNc1cc2c(cn1)c(-c1cnn(C[C@@H](O)CO)c1)nn2[C@H]1CC[C@@H](Oc2ccnc(C(F)(F)F)n2)CC1` [Example 241, (R)-3-(4-(6-(ethylamino)-1-((1s,4S)-4-((2-(trifluoromethyl)pyrimidin-4-yl)oxy)cyclohexyl)-1H-pyrazolo[4,3-c]pyridin-3-yl)-1H-pyrazol-1-yl)propane-1,2-diol] it is < 10 nM.
The figure for `CCNc1cc2c(cn1)c(-c1cnc(OC)nc1)nn2[C@H]1CC[C@@H](Oc2nccc(C(F)(F)F)c2F)CC1` [Example 269, N-ethyl-1-((1s,4s)-4-((3-fluoro-4-(trifluoromethyl)pyridin-2-yl)oxy)cyclohexyl)-3-(2-methoxypyrimidin-5-yl)-1H-pyrazolo[4,3-c]pyridin-6-amine] is < 10 nM.
Regarding `CCNc1cc2c(cn1)c(C1CCCOC1)nn2[C@H]1CC[C@@H](Oc2nccc(C(F)(F)F)c2F)CC1` (stereo partly drawn) [Example 318, N-ethyl-1-((1s,4s)-4-((3-fluoro-4-(trifluoromethyl)pyridin-2-yl)oxy)cyclohexyl)-3-(tetrahydro-2H-pyran-3-yl)-1H-pyrazolo[4,3-c]pyridin-6-amine], the IC50 is < 10 nM.
